# In US11497212B2, “Substituted thiophenyl uracils, salts thereof and the use thereof as herbicidal agents” (Syngenta Crop Protection AG, priority 2017, dated 2022):
# Experiments:
# Assay type in all cases: in vivo
# Abutilon theophrasti [1] = test: Herbicidal action post-emergence (greenhouse pot trial); details: scored visually after about 3 weeks vs untreated controls
# Method in brief: (§1)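 Percent herbicidal efficacy, assessed by eye about 3 weeks after spraying, compares treated with untreated plants. Treatment is a post-emergence spray at the one-leaf stage, using a WP or EC preparation plus 0.5% additive in 600 L/ha of water, at 80 g/ha or lower.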
# Amaranthus retroflexus [2] = test: as above; details: scored visually after about 3 weeks vs untreated controls
# Method in brief: as §1
# Echinochloa crus-galli [3] = test: as above; details: scored visually after about 3 weeks vs untreated controls
# Method in brief: as §1
# Matricaria inodora [4] = test: as above; details: scored visually after about 3 weeks vs untreated controls
# Method in brief: as §1
# Pharbitis purpurea [5] = test: as above
# Method in brief: as §1
# Polygonum convolvulus = test: as above; details: scored visually after about 3 weeks vs untreated controls
# Method in brief: as §1
# Setaria viridis [6] = test: as above; details: scored visually after about 3 weeks vs untreated controls
# Method in brief: as §1
# Veronica persica [7] = test: as above
# Method in brief: as §1
# Viola tricolor [8] = test: as above
# Method in brief: as §1
# Oryza sativa [9] = test: Crop compatibility post-emergence (greenhouse pot trial); details: application rate 20 g/ha
# Method in brief: (§2)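 Visual % rating about 3 weeks post-treatment against untreated plants (100% dead, 0% unaffected). Post-emergence spray of aqueous WP/EC preparations with 0.5% additive at 600 L/ha water, applied at one-leaf stage to greenhouse pot-grown crops in sandy loam.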
# Triticum aestivum = test: as above; details: application rate 20 g/ha
# Method in brief: as §2
# Zea mays [10] = test: as above
# Method in brief: as §2
# Abutilon theophrasti [11] = test: Herbicidal action pre-emergence (greenhouse pot trial); details: scored after about 3 weeks
# Method in brief: (§3)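 Pots containing sown seeds beneath a soil layer were sprayed with the test formulations at an application rate of 320 g/ha or lower. Percent efficacy was assigned by eye about three weeks afterwards, with dead plants scored as 100%.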
# Amaranthus retroflexus [12] = test: as above; details: scored after about 3 weeks
# Method in brief: as §3
# Matricaria inodora [13] = test: as above; details: scored after about 3 weeks
# Method in brief: as §3
# Oryza sativa [14] = test: Crop compatibility pre-emergence (greenhouse pot trial); details: effect vs untreated controls
# Method in brief: (§4)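 Compounds, formulated as WP or EC plus 0.5% additive, applied to covering soil after sowing at a water rate of 600 L/ha. After roughly 3 weeks under greenhouse conditions, visual % injury to crops rated against untreated plants, 0% meaning like control.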
# Zea mays [15] = test: as above; details: effect vs untreated controls
# Method in brief: as §4
# Alopecurus myosuroides [16] = test: Herbicidal action post-emergence (greenhouse pot trial); details: application rate 80 g/ha, scored visually after about 3 weeks vs untreated controls
# Method in brief: as §1
# Stellaria media [17] = test: as above; details: application rate 80 g/ha, scored visually after about 3 weeks vs untreated controls
# Method in brief: as §1
# Alopecurus myosuroides [18] = test: Herbicidal action pre-emergence (greenhouse pot trial); details: application rate 320 g/ha, scored after about 3 weeks
# Method in brief: as §3
# Avena fatua = test: as above; details: application rate 320 g/ha
# Method in brief: as §3
# Cyperus esculentus = test: as above; details: application rate 320 g/ha
# Method in brief: as §3
# Echinochloa crus-galli [19] = test: as above; details: application rate 320 g/ha, scored after about 3 weeks
# Method in brief: as §3
# Hordeum murinum = test: as above; details: application rate 320 g/ha
# Method in brief: as §3
# Lolium rigidum [20] = test: as above; details: application rate 320 g/ha
# Method in brief: as §3
# Pharbitis purpurea [21] = test: as above; details: application rate 320 g/ha
# Method in brief: as §3
# Setaria viridis [22] = test: as above; details: application rate 320 g/ha, scored after about 3 weeks
# Method in brief: as §3
# Stellaria media [23] = test: as above; details: application rate 320 g/ha, scored after about 3 weeks
# Method in brief: as §3
# Veronica persica [24] = test: as above; details: application rate 320 g/ha
# Method in brief: as §3
# Viola tricolor [25] = test: as above; details: application rate 320 g/ha, scored after about 3 weeks
# Method in brief: as §3
# Glycine max [26] = test: Crop compatibility pre-emergence (greenhouse pot trial); details: application rate 20 g/ha, effect vs untreated controls
# Method in brief: as §4
# Lolium rigidum [27] = test: Herbicidal action post-emergence (greenhouse pot trial); details: application rate 80 g/ha, scored visually after about 3 weeks vs untreated controls
# Method in brief: as §1
# Glycine max [28] = test: Crop compatibility post-emergence (greenhouse pot trial); details: application rate 5 g/ha
# Method in brief: as §2
Oryza sativa (Efficacy in %) (Oryza sativa [9]) [%],Triticum aestivum (Efficacy in %) (Triticum aestivum) [%],Zea mays (Efficacy in %) (Zea mays [10]; application rate 20 g/ha) [%],Structure (SMILES),Abutilon theophrasti (Efficacy in %) (Abutilon theophrasti [1]; application rate 80 g/ha) [%],Alopecurus myosuroides (Efficacy in %) (Alopecurus myosuroides [16]) [%],Amaranthus retroflexus (Efficacy in %) (Amaranthus retroflexus [2]; application rate 80 g/ha) [%],Matricaria inodora (Efficacy in %) (Matricaria inodora [4]; application rate 80 g/ha) [%],Pharbitis purpurea (Efficacy in %) (Pharbitis purpurea [5]; application rate 80 g/ha) [%],Polygonum convolvulus (Efficacy in %) (Polygonum convolvulus; application rate 80 g/ha) [%],Setaria viridis (Efficacy in %) (Setaria viridis [6]; application rate 80 g/ha) [%],Stellaria media (Efficacy in %) (Stellaria media [17]) [%],Veronica persica (Efficacy in %) (Veronica persica [7]; application rate 80 g/ha) [%],Viola tricolor (Efficacy in %) (Viola tricolor [8]; application rate 80 g/ha) [%],Abutilon theophrasti (Efficacy in %) (Abutilon theophrasti [11]; application rate 320 g/ha) [%],Alopecurus myosuroides (Efficacy in %) (Alopecurus myosuroides [18]) [%],Amaranthus retroflexus (Efficacy in %) (Amaranthus retroflexus [12]; application rate 320 g/ha) [%],Avena fatua (Efficacy in %) (Avena fatua) [%],Cyperus esculentus (Efficacy in %) (Cyperus esculentus) [%],Echinochloa crus-galli (Efficacy in %) (Echinochloa crus-galli [19]) [%],Hordeum murinum (Efficacy in %) (Hordeum murinum) [%],further results
0,10,20,CC(Sc1cc(-n2c(=O)cc(C(F)(F)F)n(C)c2=O)c(F)cc1Cl)C(=O)OCC1CCCOC1 (centres unmarked) [I.1-92],,,,,,,,,,,,,,,,,,Abutilon theophrasti (Efficacy in %) (Abutilon theophrasti [1]; application rate 20 g/ha): 100%; Amaranthus retroflexus (Efficacy in %) (Amaranthus retroflexus [2]; application rate 20 g/ha): 100%; Echinochloa crus-galli (Efficacy in %) (Echinochloa crus-galli [3]; application rate 20 g/ha): 100%; Matricaria inodora (Efficacy in %) (Matricaria inodora [4]; application rate 20 g/ha): 80%; Pharbitis purpurea (Efficacy in %) (Pharbitis purpurea [5]; application rate 20 g/ha): 100%; Polygonum convolvulus (Efficacy in %) (Polygonum convolvulus; application rate 20 g/ha): 100%; Setaria viridis (Efficacy in %) (Setaria viridis [6]; application rate 20 g/ha): 100%; Veronica persica (Efficacy in %) (Veronica persica [7]; application rate 20 g/ha): 100%; Viola tricolor (Efficacy in %) (Viola tricolor [8]; application rate 20 g/ha): 100%; Abutilon theophrasti (Efficacy in %) (Abutilon theophrasti [11]; application rate 80 g/ha): 100%; Amaranthus retroflexus (Efficacy in %) (Amaranthus retroflexus [12]; application rate 80 g/ha): 100%; Matricaria inodora (Efficacy in %) (Matricaria inodora [13]; application rate 80 g/ha): 100%; Oryza sativa (Efficacy in %) (Oryza sativa [14]; application rate 80 g/ha): 10%; Zea mays (Efficacy in %) (Zea mays [15]; application rate 80 g/ha): 0%
10,20,,CC(Sc1cc(-n2c(=O)cc(C(F)(F)F)n(C)c2=O)c(F)cc1Cl)C(=O)NCC1(C)CCCO1 (centres unmarked) [I.1-224],100,80,100,100,100,100,100,80,100,100,100,100,100,100,90,100,100,Zea mays (Efficacy in %) (Zea mays [10]; application rate 80 g/ha): 20%; Lolium rigidum (Efficacy in %) (Lolium rigidum [20]): 100%; Matricaria inodora (Efficacy in %) (Matricaria inodora [13]; application rate 320 g/ha): 100%; Pharbitis purpurea (Efficacy in %) (Pharbitis purpurea [21]): 100%; Setaria viridis (Efficacy in %) (Setaria viridis [22]): 100%; Stellaria media (Efficacy in %) (Stellaria media [23]): 100%; Veronica persica (Efficacy in %) (Veronica persica [24]): 100%; Viola tricolor (Efficacy in %) (Viola tricolor [25]): 100%; Glycine max (Efficacy in %) (Glycine max [26]): 0%; Oryza sativa (Efficacy in %) (Oryza sativa [14]; application rate 20 g/ha): 0%; Zea mays (Efficacy in %) (Zea mays [15]; application rate 20 g/ha): 0%
10,20,10,CC(Sc1cc(-n2c(=O)cc(C(F)(F)F)n(C)c2=O)c(F)cc1Cl)C(=O)NCC1CCCO1 (centres unmarked) [I.1-271],100,100,100,100,100,100,100,100,100,100,100,100,100,100,80,100,100,Echinochloa crus-galli (Efficacy in %) (Echinochloa crus-galli [3]; application rate 80 g/ha): 90%; Lolium rigidum (Efficacy in %) (Lolium rigidum [27]): 100%; Glycine max (Efficacy in %) (Glycine max [28]): 20%; Lolium rigidum (Efficacy in %) (Lolium rigidum [20]): 100%; Matricaria inodora (Efficacy in %) (Matricaria inodora [13]; application rate 320 g/ha): 100%; Pharbitis purpurea (Efficacy in %) (Pharbitis purpurea [21]): 100%; Setaria viridis (Efficacy in %) (Setaria viridis [22]): 100%; Stellaria media (Efficacy in %) (Stellaria media [23]): 100%; Veronica persica (Efficacy in %) (Veronica persica [24]): 100%; Viola tricolor (Efficacy in %) (Viola tricolor [25]): 100%; Glycine max (Efficacy in %) (Glycine max [26]): 10%; Oryza sativa (Efficacy in %) (Oryza sativa [14]; application rate 20 g/ha): 20%; Zea mays (Efficacy in %) (Zea mays [15]; application rate 20 g/ha): 0%
